In US9150899B2, “Identification of compounds modifying a cellular response” (2cureX, priority 2004, dated 2015):
Non-standard residues stand in square brackets, D forms with d. No end group written: not given here.

System: GFP expressing U2OS cells and GFP expressing Hek293 cells
Assay: Screening of adhesion D-amino peptide library for low fluorescence/high adherence properties
Format: cell-based, Human
Settings: re-synthesized adhesion peptides on PEGA beads; six re-synthesized plus four additional peptides compared
Protocol: Approx. 100 adhesion peptide library beads were mixed with 1×10E6 cells (BHK, CHO, U2OS, Hek) in each well of a Falcon 12 well plate using 2 ml growth medium. The adhesion peptide library was prepared according to the general methods for solid phase peptide synthesis outlined above. The library consisted of heptamers of D-amino acids. The peptide library beads were PEGA beads each coupled to a potential adhesion peptide. The cells and beads were mixed gently every 15 min for 2 hrs. Supernatant with non-attached cells were removed and new growth medium added. Cells/beads were incubating for another 16 hrs. (37° C., 5% CO2). Cell adhesive beads were identified using a microscope with 10× objective and positive beads were transferred to a filter paper (to suck off medium). Peptides were identified by amino acid sequencing.
An adhesion D-amino peptide library was synthesized (500.000 members) as described above in Example 2a and screened for low fluorescence/high adherence properties. This was done in 4 steps: • 1) Selection of low fluorescent beads by Fluorescence Activated Bead Sorting (FABS). […]
The 150.000 low fluorescent beads were incubated with GFP expressing U2OS cells followed by FABS sorting for high fluorescence (high cell adhesion). […] 47 beads with high cell adhesion properties were isolated using a fluorescence microscope. • 4) Sequence elucidation and re-synthesis of selected peptides. […]

SEQ ID 35: adhesion peptide arg gln arg ile arg (D-amino acids) ([dR][dQ][dR][dI][dR])
overall performance (low fluorescence/high adherence properties): best overall performance
